What is called melting point is the temperature, or range, at which the solid turns liquid.

Series [1] deals with T1, CCKA receptor (Rattus norvegicus, UniProt P30551).
T1 construct: Pancreatic membranes were prepared in a similar way described by Charpentier et al; from tissue; host or cells: rat pancreas membranes
T1 sequence (P30551 1-444): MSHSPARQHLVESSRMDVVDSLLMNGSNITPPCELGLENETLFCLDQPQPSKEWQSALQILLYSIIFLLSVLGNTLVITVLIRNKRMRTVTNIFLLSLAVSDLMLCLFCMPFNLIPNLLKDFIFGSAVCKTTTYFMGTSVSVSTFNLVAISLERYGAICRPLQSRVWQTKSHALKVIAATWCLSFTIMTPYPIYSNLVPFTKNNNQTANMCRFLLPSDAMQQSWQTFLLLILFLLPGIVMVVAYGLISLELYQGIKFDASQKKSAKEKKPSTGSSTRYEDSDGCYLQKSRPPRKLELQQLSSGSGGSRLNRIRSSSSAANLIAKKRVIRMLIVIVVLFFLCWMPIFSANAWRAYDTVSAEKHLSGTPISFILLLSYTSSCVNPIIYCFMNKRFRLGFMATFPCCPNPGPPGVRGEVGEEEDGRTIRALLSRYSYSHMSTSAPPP
Put plainly: [125]I-CCK-8 receptor binding assay, CCKA (rat pancreas membranes). The following applies: for IC50: rat pancreas membranes, 125I-Bolton-Hunter labeled CCK 25 pM, pH 6.5, 2 hrs at RT, read-out: Binding affinity Activity CCK-A. As to the method: (§1) CCKA and CCKB receptor binding assays were performed using guinea pig cerebral cortex (CCKB) and rat pancreas (CCKA). Male guinea pig brain tissues were prepared according to the modified method described by Saita et al, [(1994), Eur. J. Pharmacol., 269, 249-254]. Pancreatic membranes were prepared in a similar way described by Charpentier et al, [(1988), Proc Natl Acad Sci USA, 85, 1968-1972]. Briefly, tissues were homogenized in ice cold sucrose (0.32 M, 25 ml) for 15 strokes at 500 rpm and centrifuged at 13000 rpm for 10 mins. The supernatant was re-centrifuged at 13000 rpm for 20 mins. The resulting pellet was re-dispersed to the required volume of buffer at 500 rpm and stored in aliquots at −70° C.
(§2) Binding was achieved using a radioligand ^125I-Bolton-Hunter labeled CCK, NEN at 25 pM. The samples were incubated {with membranes (0.1 mg/ml)} in 20 mM Hepes, 1 mM EGTA, 5 mM MgCl2, 150 mm NaCl, 0.25 mg/ml bacitracin at pH 6.5 for 2 hrs at RT and then […] by centrifugation at 1100 rpm for 5 minutes. The membrane pellets were washed twice with water and the bound radioactivity was measured in a Packard Cobra Auto-gamma counter (B5005). All binding assays were carried out with L-363, 260 as an internal non-specific standard. Controls (no compound) were also added. All samples were made in duplicate and repeated twice. All compounds were initially screened for percentage inhibition at 10 μm. Samples showing an average inhibition of >35% were diluted to 1 μm and re-screened and if active diluted again.

Series [2] addresses T2, CCKB receptor (Cavia porcellus, UniProt H0VZC5).
T2 construct: Male guinea pig brain tissues were prepared according to the modified method described by Saita et al; from tissue; host or cells: male guinea pig cerebral cortex membranes
T2 sequence (H0VZC5 1-426): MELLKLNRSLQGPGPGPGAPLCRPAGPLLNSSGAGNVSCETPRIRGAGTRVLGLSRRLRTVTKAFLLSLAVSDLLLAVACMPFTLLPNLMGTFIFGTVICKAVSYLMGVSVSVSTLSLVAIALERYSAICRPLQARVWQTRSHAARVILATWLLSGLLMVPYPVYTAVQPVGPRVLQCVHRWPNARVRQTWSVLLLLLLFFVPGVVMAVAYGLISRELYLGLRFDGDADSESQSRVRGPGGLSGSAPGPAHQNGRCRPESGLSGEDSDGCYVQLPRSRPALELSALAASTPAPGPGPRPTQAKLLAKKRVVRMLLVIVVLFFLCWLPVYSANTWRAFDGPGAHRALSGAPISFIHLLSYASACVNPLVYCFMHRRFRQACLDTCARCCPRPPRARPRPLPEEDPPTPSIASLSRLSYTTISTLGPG
Put plainly: [125]I-CCK-8 receptor binding assay, CCKB (guinea pig cerebral cortex membranes). The settings on record: for IC50: guinea pig cerebral cortex membranes, 125I-Bolton-Hunter labeled CCK 25 pM, pH 6.5, 2 hrs at RT, read-out: Binding affinity Activity CCK-B. How it is done:
as §1, §2

As to `O=C1C=C(Cl)C(O)(c2ccccc2)N1C1CC1` (stereo not drawn) [Example 1, 4-Chloro-1-cyclopropyl-5-hydroxy-5-phenyl-1,5-dihydro-pyrrol-2-one], the IC50 in series [1] is 2.5 µM; in series [2] it was over 10 µM.
On the same counts, the results for `C[C@H](c1ccccc1)N1C(=O)C=C(Cl)C1(O)c1ccccc1` (single isomer, unassigned) [Example 10b] are over 10 µM and over 10 µM.
Regarding `O=C1C=C(Cl)C(O)(c2ccccc2)N1C1CCCC1` (stereo not drawn) [Example 7, 4-Chloro-1-cyclopentyl-5-hydroxy-5-phenyl-1,5-dihydro-pyrrol-2-one], the values for the IC50 in series [1] and in series [2] were 0.36 µM and 0.84 µM, respectively.
On the same counts, the results for `CCCCCCN1C(=O)C=C(Cl)C1(O)c1ccc(Cl)cc1` (stereo not drawn) [Example 16, 4-Chloro-5-(4-chloro-phenyl)-1-hexyl-5-hydroxy-1,5-dihydro-pyrrol-2-one] are over 10 µM and over 10 µM.
`CC(C)N1C(=O)C=C(Cl)C1(O)c1ccc(Cl)cc1` (stereo not drawn) [Example 13, 4-Chloro-5-(4-chloro-phenyl)-5-hydroxy-1-isopropyl-1,5-dihydro-pyrrol-2-one]: the IC50 in series [1] and in series [2] was over 10 µM each time.
As for `CCCCCCN1C(=O)C=C(Cl)C1(O)c1ccccc1` (stereo not drawn) [Example 6, 4-Chloro-1-hexyl-5-hydroxy-5-phenyl-1,5-dihydro-pyrrol-2-one], the IC50 in series [1] and in series [2] was over 10 µM in each case.
Consider `O=C1C=C(Cl)C(O)(c2ccc(Cl)cc2)N1C1CCCC1` (stereo not drawn) [Example 17, 4-Chloro-5-(4-chloro-phenyl)-1-cyclopentyl-5-hydroxy-1,5-dihydro-pyrrol-2-one], for which the values for the IC50 in series [1] and in series [2] were 2.5 µM and over 10 µM, respectively.
Take `O=C1C=C(Cl)C(O)(c2ccccc2)N1C1CCCCC1` (stereo not drawn) [Example 11, 4-Chloro-1-cyclohexyl-5-hydroxy-5-phenyl-1,5-dihydro-pyrrol-2-one]: the IC50 in series [1] and in series [2] was over 10 µM in each case.
Consider `C[C@H](c1ccccc1)N1C(=O)C=C(Cl)C1(O)c1ccccc1` (single isomer, unassigned) [Example 10a], for which the melting point is 162 to 164 °C. Besides, the IC50 in series [1] is over 10 µM. In series [2], the IC50 is over 10 µM.
For the molecule `O=C1C=C(Cl)C(O)(c2ccccc2)N1CCc1ccccc1` (stereo not drawn) [Example 5, 4-Chloro-5-hydroxy-1-phenethyl-5-phenyl-1,5-dihydro-pyrrol-2-one], the melting point is 155 to 158 °C. In series [1] (judgement in words on CCK-A and CCK-B binding), the “CCK antagonist character (in words)” value was “potent and mixed CCK antagonist”. Further, in series [1], the IC50 is 0.02 µM. Besides, in series [2], the IC50 worked out at 0.02 µM.
Molecule `Cc1ccc(N2C(=O)C=C(Cl)C2(O)c2ccccc2)cc1C` (stereo not drawn) [Example 2, 4-Chloro-1-(3,4-dimethyl-phenyl)-5-hydroxy-5-phenyl-1,5-dihydro-pyrrol-2-one] gave a melting point of 168 to 171 °C. Besides, in series [1], the IC50 is 2 µM. For the same molecule, in series [2], the IC50 was over 10 µM.
The molecule `O=C1C=C(Cl)C(O)(c2ccc(Cl)cc2)N1CCc1ccccc1` (stereo not drawn) [Example 15, 4-Chloro-5-(4-chloro-phenyl)-5-hydroxy-1-phenethyl-1,5-dihydro-pyrrol-2-one] registered a melting point of 145 to 148 °C. Moreover, the IC50 in series [1] is 0.002 µM. Further, in series [2], the IC50 amounted to 0.0015 µM.
In the case of `O=C1C=C(Cl)C(O)(c2ccccc2)N1Cc1ccccc1` (stereo not drawn) [Example 9, 1-Benzyl-4-chloro-5-hydroxy-5-phenyl-1,5-dihydro-pyrrol-2-one], the IC50 in series [1] and in series [2] was over 10 µM each time.
With `CC(C)CN1C(=O)C=C(Cl)C1(O)c1ccccc1` (stereo not drawn) [Example 8, 4-Chloro-5-hydroxy-1-isobutyl-5-phenyl-1,5-dihydro-pyrrol-2-one], the IC50 in series [1] was found to be 4.5 µM; in series [2] it was 0.01 µM. In series [2] (judgement in words), the “affinity towards the CCK B receptor (in words)” value is listed as “good affinity”.
For the molecule `CC(C)N1C(=O)C=C(Cl)C1(O)c1ccccc1` (stereo not drawn) [Example 3, 4-Chloro-5-hydroxy-1-isopropyl-5-phenyl-1,5-dihydro-pyrrol-2-one], the IC50 in series [1] and in series [2] was over 10 µM each time.
In turn, `O=C1C=C(Cl)C(O)(c2ccc(Cl)cc2)N1Cc1ccccc1` (stereo not drawn) [Example 19, 1-Benzyl-4-chloro-5-(4-chloro-phenyl)-5-hydroxy-1,5-dihydro-pyrrol-2-one] had a melting point of 149 to 152 °C. In series [1], the IC50 stood at 2.2 µM. Further, the IC50 in series [2] is over 10 µM.
Take `CN1C(=O)C=C(Cl)C1(O)c1ccc(Cl)cc1` (stereo not drawn) [Example 14, 4-Chloro-5-(4-chloro-phenyl)-5-hydroxy-1-methyl-1,5-dihydro-pyrrol-2-one]: the IC50 in series [1] and in series [2] was over 10 µM each time.
For `O=C1C=C(Cl)C(O)(c2ccc(Cl)cc2)N1C1CC1` (stereo not drawn) [Example 12, 4-Chloro-5-(4-chloro-phenyl)-1-cyclopropyl-5-hydroxy-1,5-dihydro-pyrrol-2-one], the figures for the IC50 in series [1] and in series [2] were 7.5 µM and over 10 µM, respectively.
Taken in the same sequence, the figures for `CN1C(=O)C=C(Cl)C1(O)c1ccccc1` (stereo not drawn) [Example 4, 4-Chloro-5-hydroxy-1-methyl-5-phenyl-1,5-dihydro-pyrrol-2-one] were over 10 µM and over 10 µM.

Source of the values: US8921577B2, “Cholecystokinin receptor ligands” (PNB Vesper Life Sciences Pvt. Ltd., priority 2012, dated 2014).
